# Assay results from US20040034102A1, “Oral pediatric trimethobenzamide formulations and methods” (King Pharmaceuticals, Inc., priority 2002, published 2004).
# Where two headings read alike, the source gives them in different places.
# Experiments:
# [1] = Safety assessment in the crossover study (adverse events, laboratory tests); type: in vivo, human; as to DIARRHEA (treatment emergent AE): test concentration or dose not given here; as to ERYTHEMA, PALMAR (treatment emergent AE): test concentration or dose not given here
# Description: Seventy-four healthy, non-smoking, male & female subjects, 18-65 years old were enrolled in this study. A total of 68 subjects completed all the requirements of the protocol. There were no enrollment violations. However, nine of the 74 subjects began the study during the third period of the initial group of subjects. All 74 subjects who received at least one dose of study medication were included in the safety analysis.
# This study was a single center, randomized, open-label, 4-way crossover study in healthy subjects. Dosing was administered in the fasted state. Seventy-four (74) subjects were randomized into the study. All seventy-four subjects received one or more doses of study medication and are therefore included in the safety assessment. On Treatment Day 1 of the first treatment period, each subject was randomized to receive one of four possible study treatment sequences. The treatment groups consisted of the four treatments administered sequentially as DCAB, ADBC, BACD or CBDA. These treatments are shown below.
# A signed informed consent was obtained from each subject. For screening purposes, the following procedures were required of each subject and were performed by the clinical site within 30 days prior to the study: a complete physical examination including a medical history, vital signs, clinical laboratory safety tests on blood and urine, medications taken prior to and during the study, and a serum pregnancy test for female subjects.
# During the treatments, temperature, blood pressure, heart rate and respiratory rate were monitored as a safety measure. A physical examination and clinical laboratory tests were repeated at the completion of the study. Subjects were observed and questioned throughout the study for the occurrence of any adverse events.
# [2] = cited from earlier work
# [3] = FDA notice; cited from earlier work
# [4] = 74 subjects, all 4 treatment periods
substance,measurement,setting,value
"N-[2-(dimethylamino)-ethoxy]-3,4,5trimethoxybenzamide hydrochloride [trimethobenzamide hydrochloride]",subjects with decreased red blood cell count at the end of treatment,[1]; 5 percent prior to treatment,11%
same,subjects with low hematocrit at the end of treatment,[1]; 8 percent prior to treatment,34%
same,"adverse events (AEs) experienced, total",[1]; [4],28
same,treatment emergent AEs,[1]; [4],27
same,AEs assessed as related to study treatment,[1]; all mild to moderate,21
same,hematocrit mean change,[1]; end of treatment vs prior,2.3%
same,hemoglobin mean change,[1]; end of treatment vs prior,0.6 g/dL
same,red blood cell count mean change,[1]; end of treatment vs prior,2e+11 L⁻¹
same,overall safety and tolerability,[1]; in vivo,safe and well tolerated
same,serious AEs,[1]; in vivo,no serious AEs
same,subjects with normal hemoglobin prior to treatment who had low hemoglobin at the end of treatment,[1]; no clinical significance,13%
same,dizziness,[1]; number of events,3
same,neurologic complaints,[1]; number of events,15
same,paresthesias,[1]; number of events,3
same,headaches,"[1]; number of events, in a total of 7 subjects",8
same,subjects prematurely withdrawn due to adverse events,[1]; of 6 withdrawn,4
same,samples with hyperkalemia,"[1]; of the 72 samples drawn at the end of the study, due to hemolyzed specimens",55
same,ABDOMINAL PAIN (treatment emergent AE),[1]; sequence A D B C (N = 20),5.0%
same,CONJUNCTIVITIS (treatment emergent AE),[1]; sequence A D B C (N = 20),5.0%
same,DIARRHEA (treatment emergent AE),[1]; sequence A D B C (N = 20),0.0%
same,DIZZINESS (treatment emergent AE),[1]; sequence A D B C (N = 20),15.0%
same,"EDEMA, PALMAR (treatment emergent AE)",[1]; sequence A D B C (N = 20),5.0%
same,"ERYTHEMA, EXTERNAL NOSE (treatment emergent AE)",[1]; sequence A D B C (N = 20),0.0%
same,"ERYTHEMA, PALMAR (treatment emergent AE)",[1]; sequence A D B C (N = 20),5.0%
same,HEADACHE (treatment emergent AE),[1]; sequence A D B C (N = 20),5.0%
same,HYPOTONIA (treatment emergent AE),[1]; sequence A D B C (N = 20),0.0%
same,INJECTION SITE REACTION (treatment emergent AE),[1]; sequence A D B C (N = 20),0.0%
same,LEG CRAMPS (treatment emergent AE),[1]; sequence A D B C (N = 20),0.0%
same,NAUSEA (treatment emergent AE),[1]; sequence A D B C (N = 20),5.0%
same,NAUSEA AND VOMITING (treatment emergent AE),[1]; sequence A D B C (N = 20),5.0%
same,Number of Subject With At Least one AE,[1]; sequence A D B C (N = 20),25.0%
same,Number of Subject With No AE,[1]; sequence A D B C (N = 20),75.0%
same,PARESTHESIA (treatment emergent AE),[1]; sequence A D B C (N = 20),0.0%
same,PHARYNGITIS (treatment emergent AE),[1]; sequence A D B C (N = 20),0.0%
same,RASH (treatment emergent AE),[1]; sequence A D B C (N = 20),0.0%
same,[…] (treatment emergent AE),[1]; sequence A D B C (N = 20),0.0%
same,ABDOMINAL PAIN (treatment emergent AE),[1]; sequence B A C D (N = 18),0.0%
same,CONJUNCTIVITIS (treatment emergent AE),[1]; sequence B A C D (N = 18),0.0%
same,DIARRHEA (treatment emergent AE),[1]; sequence B A C D (N = 18),0.0%
same,DIZZINESS (treatment emergent AE),[1]; sequence B A C D (N = 18),0.0%
same,"EDEMA, PALMAR (treatment emergent AE)",[1]; sequence B A C D (N = 18),0.0%
same,"ERYTHEMA, EXTERNAL NOSE (treatment emergent AE)",[1]; sequence B A C D (N = 18),0.0%
same,"ERYTHEMA, PALMAR (treatment emergent AE)",[1]; sequence B A C D (N = 18),0.0%
same,HEADACHE (treatment emergent AE),[1]; sequence B A C D (N = 18),0.0%
same,HYPOTONIA (treatment emergent AE),[1]; sequence B A C D (N = 18),0.0%
same,INJECTION SITE REACTION (treatment emergent AE),[1]; sequence B A C D (N = 18),5.6%
same,LEG CRAMPS (treatment emergent AE),[1]; sequence B A C D (N = 18),0.0%
same,NAUSEA (treatment emergent AE),[1]; sequence B A C D (N = 18),0.0%
same,NAUSEA AND VOMITING (treatment emergent AE),[1]; sequence B A C D (N = 18),0.0%
same,Number of Subject With At Least one AE,[1]; sequence B A C D (N = 18),22.2%
same,Number of Subject With No AE,[1]; sequence B A C D (N = 18),77.8%
same,PARESTHESIA (treatment emergent AE),[1]; sequence B A C D (N = 18),11.1%
same,PHARYNGITIS (treatment emergent AE),[1]; sequence B A C D (N = 18),0.0%
same,RASH (treatment emergent AE),[1]; sequence B A C D (N = 18),5.6%
same,[…] (treatment emergent AE),[1]; sequence B A C D (N = 18),5.6%
same,ABDOMINAL PAIN (treatment emergent AE),[1]; sequence C B D A (N = 18),0.0%
same,CONJUNCTIVITIS (treatment emergent AE),[1]; sequence C B D A (N = 18),0.0%
same,DIARRHEA (treatment emergent AE),[1]; sequence C B D A (N = 18),5.6%
same,DIZZINESS (treatment emergent AE),[1]; sequence C B D A (N = 18),0.0%
same,"EDEMA, PALMAR (treatment emergent AE)",[1]; sequence C B D A (N = 18),0.0%
same,"ERYTHEMA, EXTERNAL NOSE (treatment emergent AE)",[1]; sequence C B D A (N = 18),5.6%
same,"ERYTHEMA, PALMAR (treatment emergent AE)",[1]; sequence C B D A (N = 18),0.0%
same,HEADACHE (treatment emergent AE),[1]; sequence C B D A (N = 18),16.7%
same,HYPOTONIA (treatment emergent AE),[1]; sequence C B D A (N = 18),5.6%
same,INJECTION SITE REACTION (treatment emergent AE),[1]; sequence C B D A (N = 18),0.0%
same,LEG CRAMPS (treatment emergent AE),[1]; sequence C B D A (N = 18),0.0%
same,NAUSEA (treatment emergent AE),[1]; sequence C B D A (N = 18),0.0%
same,NAUSEA AND VOMITING (treatment emergent AE),[1]; sequence C B D A (N = 18),0.0%
same,Number of Subject With At Least one AE,[1]; sequence C B D A (N = 18),22.2%
same,Number of Subject With No AE,[1]; sequence C B D A (N = 18),77.8%
same,PARESTHESIA (treatment emergent AE),[1]; sequence C B D A (N = 18),0.0%
same,PHARYNGITIS (treatment emergent AE),[1]; sequence C B D A (N = 18),0.0%
same,RASH (treatment emergent AE),[1]; sequence C B D A (N = 18),0.0%
same,[…] (treatment emergent AE),[1]; sequence C B D A (N = 18),0.0%
same,ABDOMINAL PAIN (treatment emergent AE),[1]; sequence D C A B (N = 18),0.0%
same,CONJUNCTIVITIS (treatment emergent AE),[1]; sequence D C A B (N = 18),0.0%
same,DIARRHEA (treatment emergent AE),[1]; sequence D C A B (N = 18),0.0%
same,DIZZINESS (treatment emergent AE),[1]; sequence D C A B (N = 18),0.0%
same,"EDEMA, PALMAR (treatment emergent AE)",[1]; sequence D C A B (N = 18),0.0%
same,"ERYTHEMA, EXTERNAL NOSE (treatment emergent AE)",[1]; sequence D C A B (N = 18),0.0%
same,"ERYTHEMA, PALMAR (treatment emergent AE)",[1]; sequence D C A B (N = 18),0.0%
same,HEADACHE (treatment emergent AE),[1]; sequence D C A B (N = 18),16.7%
same,HYPOTONIA (treatment emergent AE),[1]; sequence D C A B (N = 18),0.0%
same,INJECTION SITE REACTION (treatment emergent AE),[1]; sequence D C A B (N = 18),0.0%
same,LEG CRAMPS (treatment emergent AE),[1]; sequence D C A B (N = 18),5.6%
same,NAUSEA (treatment emergent AE),[1]; sequence D C A B (N = 18),0.0%
same,NAUSEA AND VOMITING (treatment emergent AE),[1]; sequence D C A B (N = 18),0.0%
same,Number of Subject With At Least one AE,[1]; sequence D C A B (N = 18),27.8%
same,Number of Subject With No AE,[1]; sequence D C A B (N = 18),72.2%
same,PARESTHESIA (treatment emergent AE),[1]; sequence D C A B (N = 18),5.6%
same,PHARYNGITIS (treatment emergent AE),[1]; sequence D C A B (N = 18),0.0%
same,RASH (treatment emergent AE),[1]; sequence D C A B (N = 18),0.0%
same,[…] (treatment emergent AE),[1]; sequence D C A B (N = 18),0.0%
same,severe AEs,"[1]; severe pharyngitis, judged unrelated to study treatment",1
same,DURATION,[2]; IM,2 to 3 h
same,ONSET,[2]; IM,15 to 35 min
same,DURATION,[2]; PO,3 to 4 h
same,ONSET,[2]; PO,10 to 40 min
same,DURATION,[2]; Rect,3 to 4 h
same,ONSET,[2]; Rect,10 to 40 min
same,plasma levels of an oral dose of 400 milligrams vs a 200-milligram intramuscular dose,[3],APP[…]
same,"systemic bioavailability of orally administered drug, of the bioavailability of intramuscularly administered drug",[3],about 60%
